Assay results from patent US20220211678A1, “USES OF (+)-A-DIHYDROTETRABENAZINE IN METHODS OF TREATING MOVEMENT DISORDER” (ADEPTIO PHARMACEUTICALS LIMITED, priority 2017, published 2022).
Where two headings read alike, the source gives them in different places.

Legend:
[1] = rats, administration of tetrabenazine or dihydrotetrabenazine; stereochemistry not disclosed; cited from earlier work
[2] = oral administration of tetrabenazine, four patients affected by tardive dyskinesia; cited from earlier work
[3] = oral administration of tetrabenazine, patients treated for involuntary movement disorders; cited from earlier work
amphetamine-induced rats = test: Amphetamine-induced locomotor activity and stereotypic behaviour, open field arena (Example 2, Studies 1, 2, 4); type: in vivo, rat; settings: for normalised total stereotypic behaviour, compared to vehicle-amphetamine group / total distance travelled, compared to vehicle-amphetamine group: amphetamine at t=30 min; for locomotor activity compared to the vehicle-amphetamine group (conclusion) / stereotypic behaviour compared to the vehicle-amphetamine group (conclusion): risperidone 1 mg/kg
Excerpt: Dopaminergic models for Tourette's syndrome use systemic or focal administration of dopamine agonists such as amphetamine. After injection with amphetamine, a test animal expresses stereotypic behaviour. In particular, involvement of a dopaminergic system implicated in Tourette's syndrome wild type mice and rats can be stimulated with amphetamine and the resulting hyperactivity and stereotypies can be reversed with dopamine antagonists such as risperidone and haloperidol (Tourette's syndrome—Animal Models for Screening, Charles River Discovery Research Services, Finland).
(§1) All animal experiments were carried out according to the National Institute of Health (NIH) guidelines for the care and use of laboratory animals, and approved by the National Animal Experiment Board, Finland. Male CD (Charles River Laboratories, Germany) at weight range of 200-250 g (165-200 g upon arrival) were used for the experiments. Animals were housed at a standard temperature (22±1° C.) and in a light-controlled environment (lights on from 7 am to 8 pm) with ad libitum access to food and water.
(§2) Locomotor activity of the rats was tested in open field arena. The open field test was performed during the rat light cycle and under a normal lighting evenly distributed to the test chambers. The paths of the rats were recorded by activity monitor (Med. Associates Inc.).
(§3) Dosing the vehicle, vehicle-amphetamine, (+)-α-DHTBZ or risperidone was done prior to LMA test. The rats were placed in the centre of the arena, and the path was recorded for 60 minutes.
(§4) Animals were grouped as follows: • Group 1: 10 rats treated with Vehicle (t=0 min) and Vehicle (t=30 min) • Group 2: 10 rats treated with Vehicle (t=0 min) and Amphetamine (t=30 min) • Group 3: 10 rats treated with (+)-α-DHTBZ 0.5 mg/kg (t=0 min) and Amphetamine (t=30 min) • Group 4: 10 rats treated with (+)-α-DHTBZ 1 mg/kg (t=0 min) and Amphetamine (t=30 min) • Group 5: 10 rats treated with (+)-α-DHTBZ 1.5 mg/kg (t=0 min) and Amphetamine (t=30 min) • Group 6: 10 rats treated with (+)-α-DHTBZ 2 mg/kg (t=0 min) and Amphetamine (t=30 min) • Group 7: 10 rats treated with risperidone 1 mg/kg (t=0 min) and Amphetamine (t=30 min)
(§5) Rats dosed with either vehicle, (+)-α-DHTBZ 0.5 mg/kg, (+)-α-DHTBZ 1 mg/kg, (+)-α-DHTBZ 1.5 mg/kg, (+)-α-DHTBZ 2 mg/kg or Risperidone 1 mg/kg were subjected to LMA testing first for 30 min and then for 60 minutes after vehicle or amphetamine challenge. Resulting locomotor activity was evaluated in 3 min bins and as a total over the testing period.
as §5, with “stereotypic” for “locomotor”
Animals were grouped as follows: • Group 1: 10 rats treated with Vehicle (t=0 min) and Vehicle (t=30 min) • Group 2: 10 rats treated with Vehicle (t=0 min) and Amphetamine (t=30 min) • Group 3: 10 rats treated with (+)-α-DHTBZ 0.1 mg/kg (t=0 min) and Amphetamine (t=30 min) • Group 4: 10 rats treated with (+)-α-DHTBZ 0.25 mg/kg (t=0 min) and Amphetamine (t=30 min) • Group 5: 10 rats treated with risperidone 1 mg/kg (t=0 min) and Amphetamine (t=30 min)
as §4, with “(+)-α-DHTBZ 1” for “(+)-α-DHTBZ 0.5”, “(+)-α-DHTBZ 1.5” for “(+)-α-DHTBZ 1”, “with Valbenazine 1” for “with (+)-α-DHTBZ 1.5”, “with Valbenazine 1.5” for “with (+)-α-DHTBZ 2”

[4] = system: patients suffering from tardive dyskinesia; settings: cited from earlier work
[5] = system: Tardive Dyskinesia sufferers; settings: 80 mg/day; cited from earlier work
[6] = system: non-amphetamine induced rats; test: Locomotor activity and stereotypic behaviour in non-amphetamine induced rats, open field arena (Example 2, Study 3); type: in vivo, rat; settings: Study 3, non-induced rats; (+)-α-DHTBZ 2.5 mg/kg or 5 mg/kg, risperidone 1 mg/kg
Experimental: as §1, §2, §3
Animals were grouped as follows: • Group 1: 10 rats treated with Vehicle • Group 2: 10 rats treated with (+)-α-DHTBZ 2.5 mg/kg • Group 3: 10 rats treated with (+)-α-DHTBZ 5 mg/kg • Group 4: 10 rats treated with risperidone 1 mg/kg

[7] = Study 1, (+)-α-DHTBZ at all the tested doses (0.5, 1, 1.5, 2 mg/kg)

COc1cc2c(cc1OC)C1CC(O)C(CC(C)C)CN1CC2 (stereo not drawn) [dihydrotetrabenazine, 2-hydroxy-3-(2-methylpropyl)-1,3,4,6,7,11b-hexahydro-9,10-dimethoxy-benzo(a)quinolizine]
crossing of the blood-brain barrier [1]: able to cross the blood-brain barrier | plasma concentrations [2]: relatively high concentrations

COc1cc2c(cc1OC)C1CC(=O)C(CC(C)C)CN1CC2 (stereo not drawn) [tetrabenazine, 1,3,4,6,7,11b-hexahydro-9,10-dimethoxy-3-(2-methylpropyl)-2H-benzo(a)quinolizin-2-one]
plasma concentrations [2]: low plasma concentrations | plasma concentrations [3]: very low plasma concentrations

COc1cc2c(cc1OC)[C@H]1C[C@@H](OC(=O)[C@@H](N)C(C)C)[C@H](CC(C)C)CN1CC2 [Valbenazine, reference compound]
normalised total stereotypic behaviour, compared to vehicle-amphetamine group (amphetamine-induced rats; Study 4, 1 mg/kg): significantly different | total distance travelled, compared to vehicle-amphetamine group (amphetamine-induced rats; Study 4, 1 mg/kg): significantly different | normalised total stereotypic behaviour, compared to vehicle-amphetamine group (amphetamine-induced rats; Study 4, 1.5 mg/kg): significantly different | total distance travelled, compared to vehicle-amphetamine group (amphetamine-induced rats; Study 4, 1.5 mg/kg): significantly different | symptoms scored with the abnormal involuntary movement scale (AIMS) ([4]; 50 mg/day): did not show any significant signs of improvement | symptoms scored with the abnormal involuntary movement scale (AIMS) ([4]; 100 mg/day): some reduction of symptoms | Abnormal Involuntary Movement Score [5]: significant improvement

Cc1nc2n(c(=O)c1CCN1CCC(c3noc4cc(F)ccc34)CC1)CCCC2 [risperidone, reference compound]
normalised total stereotypic behaviour, compared to vehicle-amphetamine group (amphetamine-induced rats; Study 1, 1 mg/kg): significantly different | locomotor activity compared to the vehicle-amphetamine group (conclusion) (amphetamine-induced rats; [7]): lower locomotor activity | stereotypic behaviour compared to the vehicle-amphetamine group (conclusion) (amphetamine-induced rats; [7]): reduced stereotypic behaviour | normalised total stereotypic behaviour, compared to vehicle-amphetamine group (amphetamine-induced rats; Study 2, 1 mg/kg): significantly different | locomotor activity compared to the vehicle-amphetamine group (conclusion) (amphetamine-induced rats; Study 2, (+)-α-DHTBZ at 0.25 mg/kg): lower locomotor activity | stereotypic behaviour compared to the vehicle-amphetamine group (conclusion) (amphetamine-induced rats; Study 2, (+)-α-DHTBZ at both the tested doses (0.1, 0.25 mg/kg)): reduced stereotypic behaviour | normalised total stereotypic behaviour, compared to vehicle-amphetamine group (amphetamine-induced rats; Study 4, 1 mg/kg): significantly different | total distance travelled, compared to vehicle-amphetamine group (amphetamine-induced rats; Study 4, 1 mg/kg): significantly different | total movement compared to rats treated with the vehicle [6]: reduced total movement | total stereotypic behaviour compared to rats treated with the vehicle [6]: reduced total stereotypic behaviour
